Read-outs that look alike come from different tables or passages of the source.

For data set [1] the following is noted: amide bond, 13-membered ring.
For data set [2], the target named is T1, CFTR (Homo sapiens, UniProt P13569). In words: Membrane potential dye, Enteroid Assay A. The data set is classed as cell-based. Conditions: for Ent. A Max Activity: chloride transport as % of triple combination control (Enteroid Assay A); for EC50: human enteroid cells, 18-24 hours, acute 10 μM forskolin and 300 nM ivacaftor, read-out: Ent. A EC50. Put shortly: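 % Activity: chloride transport relative to a 3 μM/3 μM corrector pair plus 300 nM acute potentiator control. Primary human enteroid cells, 18-24 h compound exposure at 37 °C; membrane potential dye (methyl oxonol) fluorescence over 15 min after forskolin (10 μM)/IBMX (100 μM)/Compound III (300 nM) stimulation in chloride-free buffer.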
T1 sequence (P13569 with tags, fused parts or gaps DEL508-508): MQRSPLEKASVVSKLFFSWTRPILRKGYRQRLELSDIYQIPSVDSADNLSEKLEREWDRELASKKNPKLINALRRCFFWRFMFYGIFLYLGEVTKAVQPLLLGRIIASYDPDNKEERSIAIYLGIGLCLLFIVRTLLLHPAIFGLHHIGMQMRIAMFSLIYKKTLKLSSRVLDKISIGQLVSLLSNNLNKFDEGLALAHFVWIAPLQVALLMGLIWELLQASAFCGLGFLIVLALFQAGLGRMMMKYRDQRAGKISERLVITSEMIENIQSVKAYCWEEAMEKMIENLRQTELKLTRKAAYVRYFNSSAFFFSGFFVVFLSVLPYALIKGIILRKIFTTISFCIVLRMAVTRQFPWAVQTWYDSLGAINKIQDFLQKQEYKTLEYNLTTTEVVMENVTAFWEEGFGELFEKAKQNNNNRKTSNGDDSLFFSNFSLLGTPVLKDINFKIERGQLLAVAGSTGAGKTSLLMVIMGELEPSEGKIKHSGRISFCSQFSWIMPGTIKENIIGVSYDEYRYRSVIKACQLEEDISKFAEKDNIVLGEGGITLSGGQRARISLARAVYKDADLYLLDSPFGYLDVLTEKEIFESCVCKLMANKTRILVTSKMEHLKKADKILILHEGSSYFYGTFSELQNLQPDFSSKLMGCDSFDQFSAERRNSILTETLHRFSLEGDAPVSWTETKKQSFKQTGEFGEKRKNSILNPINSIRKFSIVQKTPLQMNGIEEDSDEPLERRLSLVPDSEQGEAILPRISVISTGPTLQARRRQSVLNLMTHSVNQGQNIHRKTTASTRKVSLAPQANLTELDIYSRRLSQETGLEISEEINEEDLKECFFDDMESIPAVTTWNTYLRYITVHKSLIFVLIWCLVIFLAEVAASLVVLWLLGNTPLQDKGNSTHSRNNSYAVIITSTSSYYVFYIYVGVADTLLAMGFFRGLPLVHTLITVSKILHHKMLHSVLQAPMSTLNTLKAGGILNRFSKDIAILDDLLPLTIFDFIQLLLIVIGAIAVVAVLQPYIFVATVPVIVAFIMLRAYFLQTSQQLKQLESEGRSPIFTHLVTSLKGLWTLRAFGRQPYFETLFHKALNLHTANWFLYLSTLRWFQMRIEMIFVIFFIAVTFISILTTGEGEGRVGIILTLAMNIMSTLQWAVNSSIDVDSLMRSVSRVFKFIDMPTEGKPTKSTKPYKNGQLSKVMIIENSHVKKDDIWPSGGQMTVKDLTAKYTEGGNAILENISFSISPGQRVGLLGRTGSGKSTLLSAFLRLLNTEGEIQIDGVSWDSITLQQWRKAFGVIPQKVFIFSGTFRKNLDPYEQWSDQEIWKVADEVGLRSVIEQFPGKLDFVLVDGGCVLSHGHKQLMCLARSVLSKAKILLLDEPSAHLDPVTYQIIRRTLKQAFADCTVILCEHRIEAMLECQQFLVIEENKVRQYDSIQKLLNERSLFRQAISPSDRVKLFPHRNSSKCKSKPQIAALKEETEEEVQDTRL

Data set [3] has as its target T1, CFTR. In words: Membrane potential dye, Enteroid Assay B. Conditions: for Ent. B Max Activity: chloride transport as % of triple combination control (Enteroid Assay B); for EC50: read-out: Ent. B EC50. The data set is classed as cell-based. In outline:
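Fluorescence read over 15 min after chloride-free stimulation (10 μM forskolin, 100 μM IBMX, 300 nM Compound III) gave chloride transport, reported as % activity versus a triple-corrector/potentiator control. Beforehand, human enteroid cells had 18-24 h compound exposure at 37° C and 25 min methyl oxonol dye loading at room temperature.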

For the next data set, the target named is T2, F508del (Homo sapiens, UniProt P13569, DEL508-508).
T2 construct: expressed in transfected cells
T2 sequence (P13569 with tags, fused parts or gaps DEL508-508): as above
Put plainly: 3T3 assay: membrane potential optical assay for F508del correction. The data set is classed as cell-based. Conditions: Table 6, F508del NIH 3T3 cells; for Emax: NIH3T3, compared to lumacaftor in combination with acutely added 300 nM Ivacaftor, read-out: 3T3 Max Activity; for EC50: 18-24 hours at 37° C., forskolin, acutely added 300 nM Ivacaftor. Put shortly: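 NIH 3T3 mouse fibroblasts stably expressing F508del incubated with corrector compounds across a concentration range for 16-24 hours at 37° C, then loaded with voltage-sensing redistribution dye. Response is FLIPR membrane potential change on forskolin activation with a chloride gradient (chloride-free gluconate bath, HEPES pH 7.4).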

The mark [4] stands for this setting: Table 8, human enteroid cells, 18-24 hours, acute 10 μM forskolin and 300 nM ivacaftor.

In the case of `COCCCCN1C(=O)c2cccc(c2)S(=O)(=O)Nc2nc(cc(-c3c(C)cccc3C)n2)OC[C@H]1CC(C)C` [Compound 84, (11R)-6-(2,6-dimethylphenyl)-11-isobutyl-12-(4-methoxybutyl)-2,2-dioxo-9-oxa-2λ^6-thia-3,5,12,19-tetrazatricyclo[12.3.1.14,8]nonadeca-1(18),4(19),5,7,14,16-hexaen-13-one], the ring closure, yield after HPLC in data set [1] (from COCCCCN[C@@H](COc1cc(-c2c(C)cccc2C)nc(NS(=O)(=O)c2cccc(C(=O)O)c2)n1)CC(C)C, NaOtBu then HATU, THF, 98.4 mM, 25.0 °C, 1.0 h, 2 steps) was found to be 9%. For the same compound, the “Ent. A Max Activity” value on CFTR [2] (Table 7) was “+++ (+++ is >60%)”. In addition, the EC50 was less than 1000 nM on CFTR [2] (Table 7); less than 1000 nM at CFTR [3] (Table 7, human enteroid cells, 18-24 hours, acute 10 μM forskolin and 300 nM ivacaftor). Also, the “Ent. B Max Activity” value at CFTR [3] (Table 7) is given as “+++ (+++ is >60%)”.
In the case of `Cc1cccc(C)c1-c1cc2nc(n1)NS(=O)(=O)c1cccc(c1)C(=O)N(CC1CC3(CCOCC3)C1)[C@H](CC(C)C)CO2` [Compound 40, (11R)-6-(2,6-Dimethylphenyl)-11-isobutyl-12-(7-oxaspiro[3.5]nonan-2-ylmethyl)-2,2-dioxo-9-oxa-2λ^6-thia-3,5,12,19-tetrazatricyclo[12.3.1.14,8]nonadeca-1(18),4(19),5,7,14,16-hexaen-13-one], at F508del, the Emax was greater than 60% and the concentration for a half-maximal effect (EC50) was less than 1000 nM. For the same compound, the ring closure, yield after HPLC in data set [1] (from Cc1cccc(C)c1-c1cc(OC[C@@H](CC(C)C)NCC2CC3(CCOCC3)C2)nc(NS(=O)(=O)c2cccc(C(=O)O)c2)n1, HATU/DIEA, DMF, 18.8 mM, 1.0 h) stood at 63%. At CFTR [2] (Table 6), the “Ent. A Max Activity” value was “+++ (+++ is >60%)” and the concentration for a half-maximal effect (EC50) is less than 1000 nM.
`Cc1cccc(C)c1-c1cc2nc(n1)NS(=O)(=O)c1cccc(c1)C(=O)N(Cc1ccc(N3CCOCC3)cn1)[C@H](CC(C)(C)C)CO2` [Compound 48, (11R)-6-(2,6-Dimethylphenyl)-11-(2,2-dimethylpropyl)-12-[(5-morpholino-2-pyridyl)methyl]-2,2-dioxo-9-oxa-2λ^6-thia-3,5,12,19-tetrazatricyclo[12.3.1.14,8]nonadeca-1(18),4(19),5,7,14,16-hexaen-13-one]: in data set [1] (from Cc1cccc(C)c1-c1cc(OC[C@@H](CC(C)(C)C)NCc2ccc(N3CCOCC3)cn2)nc(NS(=O)(=O)c2cccc(C(=O)O)c2)n1, CDMT/NMM, DMF, 16.9 mM, 25.0 °C, 2.33 h, 2 steps), the ring closure, yield after HPLC came out at 22%. On CFTR [3] (Table 9), the “Ent. B Max Activity (%)” value is on record as “+++ (+++ is >600%)” and the concentration giving a half-maximal response (EC50) is less than 1000 nM.
As for `COC(=O)c1ccc(CCN2C(=O)c3cccc(c3)S(=O)(=O)Nc3nc(cc(-c4c(C)cccc4C)n3)OC[C@H]2CC(C)(C)C)cc1` [Compound 1081], the ring closure, yield after HPLC in data set [1] (from COC(=O)c1ccc(CCN[C@@H](COc2cc(-c3c(C)cccc3C)nc(NS(=O)(=O)c3cccc(C(=O)O)c3)n2)CC(C)(C)C)cc1, HATU/DIEA, DMF, 25.0 °C, 16.0 h, 2 steps) is 23%. Moreover, on CFTR [3] (Table 9), the “Ent. B Max Activity (%)” value is reported as “+++ (+++ is >600%)” and the 50% effective concentration (EC50) is less than 1000 nM.
Turning to `Cc1cccc(C)c1-c1cc2nc(n1)NS(=O)(=O)c1cccc(c1)C(=O)N(CCC1(C(F)(F)F)CC1)[C@H](CC(C)C)CO2` [Compound 37, (11R)-6-(2,6-Dimethylphenyl)-11-(2-methylpropyl)-12-{2-[1-(trifluoromethyl)cyclopropyl]ethyl}-9-oxa-2λ^6-thia-3,5,12,19-tetraazatricyclo[12.3.1.14,8]nonadeca-1(17),4(19),5,7,14(18),15-hexaene-2,2,13-trione], at F508del, the Emax was greater than 60% and the EC50 was less than 1000 nM. This compound also gave a ring closure, yield after HPLC in data set [1] (from Cc1cccc(C)c1-c1cc(OC[C@@H](CC(C)C)NCCC2(C(F)(F)F)CC2)nc(NS(=O)(=O)c2cccc(C(=O)O)c2)n1, HATU/DIEA, DMF, 25.2 mM, 25.0 °C, 1.0 h) of 37%. On CFTR [2] (Table 6), the “Ent. A Max Activity” value was “+++ (+++ is >60%)” and the concentration giving a half-maximal response (EC50) was less than 1000 nM.
As to `Cc1cccc(C)c1-c1cc2nc(n1)NS(=O)(=O)c1cccc(c1)C(=O)N(CC(C)C)CCO2` [Compound 4, 6-(2,6-Dimethylphenyl)-12-isobutyl-2,2-dioxo-9-oxa-2λ^6-thia-3,5,12,19-tetrazatricyclo[12.3.1.14,8]nonadeca-1(18),4(19),5,7,14,16-hexaen-13-one], on F508del, the Emax is greater than 60% and the EC50 is less than 1000 nM. Further, the ring closure, yield after HPLC in data set [1] (from Cc1cccc(C)c1-c1cc(OCCNCC(C)C)nc(NS(=O)(=O)c2cccc(C(=O)O)c2)n1, HATU/TEA, DMF, 91.6 mM, 0.5 h) came out at 48%. On CFTR [2] (Table 6), the “Ent. A Max Activity” value was “+++ (+++ is >60%)” and the 50% effective concentration (EC50) is less than 1000 nM.
As for `Cc1cccc(C)c1-c1cc2nc(n1)NS(=O)(=O)c1cccc(c1)C(=O)N(Cc1cnc(N)nc1)[C@H](CC(C)(C)C)CO2` [Compound 136, (11R)-12-[(2-Aminopyrimidin-5-yl)methyl]-6-(2,6-dimethylphenyl)-11-(2,2-dimethylpropyl)-9-oxa-2λ^6-thia-3,5,12,19-tetraazatricyclo[12.3.1.14,8]nonadeca-1(18),4,6,8(19),14,16-hexaene-2,2,13-trione], the ring closure, yield after HPLC in data set [1] (from Cc1cccc(C)c1-c1cc(OC[C@@H](CC(C)(C)C)NCc2cnc(N)nc2)nc(NS(=O)(=O)c2cccc(C(=O)O)c2)n1, COMU/DIEA, DMF, 29.3 mM, 5.0 h) came out at 33%. Also, on CFTR [3] (Table 8), the “Ent. B Max Activity” value is “+++ (+++ is >60%)”. Moreover, the EC50 on CFTR [3] (setting [4]) was less than 1000 nM.
Turning to `Cc1cccc(C)c1-c1cc2nc(n1)NS(=O)(=O)c1cccc(c1)C(=O)N(Cc1cccnn1)[C@H](CC(C)(C)C)CO2` [Compound 135, (11R)-6-(2,6-dimethylphenyl)-11-(2,2-dimethylpropyl)-12-[(pyridazin-3-yl)methyl]-9-oxa-2λ^6-thia-3,5,12,19-tetraazatricyclo[12.3.1.14,8]nonadeca-1(18),4,6,8(19),14,16-hexaene-2,2,13-trione], in data set [1] (from Cc1cccc(C)c1-c1cc(OC[C@@H](CC(C)(C)C)NCc2cccnn2)nc(NS(=O)(=O)c2cccc(C(=O)O)c2)n1, COMU/DIEA, DMF, 40.7 mM, 16.0 h), the ring closure, yield after HPLC was 22%. Besides, the “Ent. B Max Activity” value on CFTR [3] (Table 8) is “+++ (+++ is >60%)”. For the same compound, the EC50 at CFTR [3] (setting [4]) is less than 1000 nM.
Compound `Cc1cccc(C)c1-c1cc2nc(n1)NS(=O)(=O)c1cccc(c1)C(=O)N(Cc1cn(C)nc1C(C)(C)C)[C@H](CC(C)C)CO2` [Compound 83, (11R)-12-[(3-tert-Butyl-1-methyl-pyrazol-4-yl)methyl]-6-(2,6-dimethylphenyl)-11-isobutyl-2,2-dioxo-9-oxa-2λ^6-thia-3,5,12,19-tetrazatricyclo[12.3.1.14,8]nonadeca-1(18),4(19),5,7,14,16-hexaen-13-one] displayed a ring closure, yield after HPLC in data set [1] (from Cc1cccc(C)c1-c1cc(OC[C@@H](CC(C)C)NCc2cn(C)nc2C(C)(C)C)nc(NS(=O)(=O)c2cccc(C(=O)O)c2)n1, HATU/DIEA, DMF, 20.4 mM, 25.0 °C, 18.0 h) of 32%. Besides, at CFTR [2] (Table 7), the “Ent. A Max Activity” value is on record as “+++ (+++ is >60%)” and the EC50 is less than 1000 nM.
Regarding `Cc1cccc(C)c1-c1cc2nc(n1)NS(=O)(=O)c1cccc(c1)C(=O)N(Cc1ncccn1)[C@H](CC(C)(C)C)CO2` [Compound 113, (11R)-6-(2,6-Dimethylphenyl)-11-(2,2-dimethylpropyl)-12-[(pyrimidin-2-yl)methyl]-9-oxa-2λ^6-thia-3,5,12,19-tetraazatricyclo[12.3.1.14,8]nonadeca-1(17),4(19),5,7,14(18),15-hexaene-2,2,13-trione], in data set [1] (from Cc1cccc(C)c1-c1cc(OC[C@@H](CC(C)(C)C)NCc2ncccn2)nc(NS(=O)(=O)c2cccc(C(=O)O)c2)n1, COMU/DIEA, DMF, 28.1 mM, 25.0 °C, 6.0 h), the ring closure, yield after HPLC is 33%. At CFTR [3] (Table 8), the “Ent. B Max Activity” value is reported as “+++ (+++ is >60%)”. The EC50 on CFTR [3] (setting [4]) was less than 1000 nM.
In turn, `Cc1cccc(C)c1-c1cc2nc(n1)NS(=O)(=O)c1cccc(n1)C(=O)N(Cc1ncccn1)[C@H](CC(C)(C)C)CO2` [Compound 75, (11R)-6-(2,6-dimethylphenyl)-11-(2,2-dimethylpropyl)-12-[(pyrimidin-2-yl)methyl]-9-oxa-2λ^6-thia-3,5,12,18,19-pentaazatricyclo[12.3.1.14,8]nonadeca-1(18),4(19),5,7,14,16-hexaene-2,2,13-trione] registered a ring closure, yield after HPLC in data set [1] (from Cc1cccc(C)c1-c1cc(OC[C@@H](CC(C)(C)C)NCc2ncccn2)nc(NS(=O)(=O)c2cccc(C(=O)O)n2)n1, HATU/DIEA, DMF, 30.5 mM, 25.0 °C, 0.5 h) of 46%. Further, the “Ent. B Max Activity” value on CFTR [3] (Table 8) is “+++ (+++ is >60%)”. On CFTR [3] (setting [4]), the EC50 is less than 1000 nM.

The values above are taken from patent US20240150377A1, “MODULATORS OF CYSTIC FIBROSIS TRANSMEMBRANE CONDUCTANCE REGULATOR” (VERTEX PHARMACEUTICALS INCORPORATED, priority 2020, published 2024).
